Converted amounts (≈) assume the structure as drawn.
Tests used:
Assay type in all cases: functional
Staphylococcus aureus [1] = assay: Antibacterial activity against Staphylococcus aureus ATCC 29213 assessed as inhibition of bacterial growth at 16 ug/ml
Staphylococcus aureus [2] = assay: Antibacterial activity against Staphylococcus aureus ATCC 29213 assessed as inhibition of bacterial growth
Ralstonia solanacearum [3] = assay: Antibacterial activity against Ralstonia solanacearum Px1 assessed as inhibition of bacterial growth
Ralstonia solanacearum [4] = assay: Antibacterial activity against Ralstonia solanacearum Px1 assessed as inhibition of bacterial growth at 16 ug/ml
Pseudomonas aeruginosa = assay: Antibacterial activity against Pseudomonas aeruginosa PA14 assessed as inhibition of bacterial growth
Escherichia coli = assay: Antibacterial activity against Escherichia coli ATCC 25922 assessed as inhibition of bacterial growth

## S=c1[nH]nc(NCNc2n[nH]c(=S)s2)s1
Staphylococcus aureus [1]
  inhibition at 16 µg/mL: 0%
Staphylococcus aureus [2]
  MIC: 256 µg/mL (≈ 919 µM)
Ralstonia solanacearum [3]
  MIC: 128 µg/mL (≈ 460 µM)
Ralstonia solanacearum [4]
  inhibition at 16 µg/mL: 0%

## Cc1c(C[C@@H]2[C@@]3(C)CCCC(C)(C)[C@@H]3CC[C@@]2(C)O)c2ccccc2n1Cc1ccc(F)cc1
Pseudomonas aeruginosa
  inhibition (INH): 0%
Staphylococcus aureus [1]
  inhibition at 16 µg/mL: 0%
Escherichia coli
  inhibition (INH): 0%
Ralstonia solanacearum [4]
  inhibition at 16 µg/mL: 0%

## Cc1c(C[C@@H]2[C@@]3(C)CCCC(C)(C)[C@@H]3CC[C@@]2(C)O)c2ccccc2n1-c1ccc(F)cc1
Pseudomonas aeruginosa
  inhibition (INH): 0%
Staphylococcus aureus [1]
  inhibition at 16 µg/mL: 0%
Escherichia coli
  inhibition (INH): 0%
Ralstonia solanacearum [4]
  inhibition at 16 µg/mL: 0%

## C=CCn1c(C)c(C[C@@H]2[C@@]3(C)CCCC(C)(C)[C@@H]3CC[C@@]2(C)O)c2ccccc21
Pseudomonas aeruginosa
  inhibition (INH): 0%
Staphylococcus aureus [1]
  inhibition at 16 µg/mL: 0%
Escherichia coli
  inhibition (INH): 0%
Ralstonia solanacearum [4]
  inhibition at 16 µg/mL: 0%

## Cc1ccc(-n2c(C)c(C[C@@H]3[C@@]4(C)CCCC(C)(C)[C@@H]4CC[C@@]3(C)O)c3ccccc32)cc1
Pseudomonas aeruginosa
  inhibition (INH): 0%
Staphylococcus aureus [1]
  inhibition at 16 µg/mL: 0%
Escherichia coli
  inhibition (INH): 0%
Ralstonia solanacearum [4]
  inhibition at 16 µg/mL: 0%

## Cc1c2c3ccccc3n1[C@]1(C)CC[C@H]3C(C)(C)CCC[C@]3(C)[C@H]1C2
Pseudomonas aeruginosa
  inhibition (INH): 0%
Staphylococcus aureus [1]
  inhibition at 16 µg/mL: 0%
Escherichia coli
  inhibition (INH): 0%
Ralstonia solanacearum [4]
  inhibition at 16 µg/mL: 0%

## Cc1c(C[C@@H]2[C@@]3(C)CCCC(C)(C)[C@@H]3CC[C@@]2(C)O)c2ccccc2n1-c1ccc(C(F)(F)F)cc1
Pseudomonas aeruginosa
  inhibition (INH): 0%
Staphylococcus aureus [1]
  inhibition at 16 µg/mL: 0%
Escherichia coli
  inhibition (INH): 0%
Ralstonia solanacearum [4]
  inhibition at 16 µg/mL: 0%

## Cc1c(C[C@@H]2[C@@]3(C)CCCC(C)(C)[C@@H]3CC[C@@]2(C)O)c2ccccc2n1Cc1ccc(C(F)(F)F)cc1
Pseudomonas aeruginosa
  inhibition (INH): 0%
Staphylococcus aureus [1]
  inhibition at 16 µg/mL: 0%
Escherichia coli
  inhibition (INH): 0%
Ralstonia solanacearum [4]
  inhibition at 16 µg/mL: 0%

## Cc1ccc(Cn2c(C)c(C[C@@H]3[C@@]4(C)CCCC(C)(C)[C@@H]4CC[C@@]3(C)O)c3ccccc32)cc1
Pseudomonas aeruginosa
  inhibition (INH): 0%
Staphylococcus aureus [1]
  inhibition at 16 µg/mL: 0%
Escherichia coli
  inhibition (INH): 0%
Ralstonia solanacearum [4]
  inhibition at 16 µg/mL: 0%

## Cc1c(C[C@@H]2[C@@]3(C)CCCC(C)(C)[C@@H]3CC[C@@]2(C)O)c2ccccc2n1-c1ccccc1
Pseudomonas aeruginosa
  inhibition (INH): 0%
Staphylococcus aureus [1]
  inhibition at 16 µg/mL: 0%
Escherichia coli
  inhibition (INH): 0%
Ralstonia solanacearum [4]
  inhibition at 16 µg/mL: 0%

## CCn1c(C)c(C[C@@H]2[C@@]3(C)CCCC(C)(C)[C@@H]3CC[C@@]2(C)O)c2ccccc21
Pseudomonas aeruginosa
  inhibition (INH): 0%
Staphylococcus aureus [1]
  inhibition at 16 µg/mL: 0%
Escherichia coli
  inhibition (INH): 0%
Ralstonia solanacearum [4]
  inhibition at 16 µg/mL: 0%

## CC1=C(Cc2c(C)[nH]c3ccccc23)[C@@]2(C)CCCC(C)(C)[C@@H]2CC1
Pseudomonas aeruginosa
  inhibition (INH): 0%
Staphylococcus aureus [1]
  inhibition at 16 µg/mL: 0%
Escherichia coli
  inhibition (INH): 0%
Ralstonia solanacearum [4]
  inhibition at 16 µg/mL: 92%

## Cc1c(C[C@@H]2[C@@]3(C)CCCC(C)(C)[C@@H]3CC[C@@]2(C)O)c2ccccc2n1Cc1ccccc1
Pseudomonas aeruginosa
  inhibition (INH): 0%
Staphylococcus aureus [1]
  inhibition at 16 µg/mL: 0%
Escherichia coli
  inhibition (INH): 0%
Ralstonia solanacearum [4]
  inhibition at 16 µg/mL: 0%

## Cc1[nH]c2ccccc2c1C[C@@H]1[C@@]2(C)CCCC(C)(C)[C@@H]2CC[C@@]1(C)O
Pseudomonas aeruginosa
  inhibition (INH): 0%
Staphylococcus aureus [1]
  inhibition at 16 µg/mL: 93%
Escherichia coli
  inhibition (INH): 0%
Ralstonia solanacearum [3]
  MIC: 8 µg/mL (≈ 22.6 µM)
Ralstonia solanacearum [4]
  inhibition at 16 µg/mL: > 99%

## Cc1c(C[C@@H]2[C@@]3(C)CCCC(C)(C)[C@@H]3CC[C@@]2(C)O)c2ccccc2n1C(=O)c1ccccc1
Pseudomonas aeruginosa
  inhibition (INH): 0%
Staphylococcus aureus [1]
  inhibition at 16 µg/mL: 0%
Escherichia coli
  inhibition (INH): 0%
Ralstonia solanacearum [4]
  inhibition at 16 µg/mL: 0%

## CC1=CC[C@H]2C(C)(C)CCC[C@]2(C)[C@H]1Cc1c(C)[nH]c2ccccc12
Pseudomonas aeruginosa
  inhibition (INH): 0%
Staphylococcus aureus [1]
  inhibition at 16 µg/mL: 0%
Escherichia coli
  inhibition (INH): 0%
Ralstonia solanacearum [4]
  inhibition at 16 µg/mL: 95%

## Cc1c(C[C@@H]2[C@@]3(C)CCCC(C)(C)[C@@H]3CC[C@@]2(C)O)c2ccccc2n1C
Pseudomonas aeruginosa
  inhibition (INH): 0%
Staphylococcus aureus [1]
  inhibition at 16 µg/mL: 0%
Escherichia coli
  inhibition (INH): 0%
Ralstonia solanacearum [4]
  inhibition at 16 µg/mL: 0%

## C=CCCn1c(C)c(C[C@@H]2[C@@]3(C)CCCC(C)(C)[C@@H]3CC[C@@]2(C)O)c2ccccc21
Pseudomonas aeruginosa
  inhibition (INH): 0%
Staphylococcus aureus [1]
  inhibition at 16 µg/mL: 0%
Escherichia coli
  inhibition (INH): 0%
Ralstonia solanacearum [4]
  inhibition at 16 µg/mL: 0%

## C=C1CC[C@H]2C(C)(C)CCC[C@]2(C)[C@H]1Cc1c(C)[nH]c2ccccc12
Pseudomonas aeruginosa
  inhibition (INH): 0%
Staphylococcus aureus [1]
  inhibition at 16 µg/mL: 0%
Escherichia coli
  inhibition (INH): 0%
Ralstonia solanacearum [3]
  MIC: 16 µg/mL (≈ 47.7 µM)
Ralstonia solanacearum [4]
  inhibition at 16 µg/mL: > 99%

## C=C[C@](C)(O)CC[C@@H]1[C@@]2(C)CCCC(C)(C)[C@@H]2CC[C@@]1(C)O [SCLAREOL]
Pseudomonas aeruginosa
  inhibition (INH): 0%
Staphylococcus aureus [1]
  inhibition at 16 µg/mL: > 99%
Escherichia coli
  inhibition (INH): 0%
Staphylococcus aureus [2]
  MIC: 16 µg/mL (≈ 51.9 µM)
Ralstonia solanacearum [3]
  MIC: 32 µg/mL (≈ 104 µM)
Ralstonia solanacearum [4]
  inhibition at 16 µg/mL: 65%

## CN[C@H](CC(C)C)C(=O)N[C@H]1C(=O)N[C@@H](CC(N)=O)C(=O)N[C@H]2C(=O)N[C@H]3C(=O)N[C@H](C(=O)N[C@H](C(=O)O)c4cc(O)cc(O)c4-c4cc3ccc4O)[C@H](O)c3ccc(c(Cl)c3)Oc3cc2cc(c3O[C@@H]2O[C@H](CO)[C@@H](O)[C@H](O)[C@H]2O[C@H]2C[C@](C)(N)[C@H](O)[C@H](C)O2)Oc2ccc(cc2Cl)[C@H]1O [VANCOMYCIN]
Staphylococcus aureus [1]
  inhibition at 16 µg/mL: > 99%
Ralstonia solanacearum [3]
  MIC: < 0.5 µg/mL
Ralstonia solanacearum [4]
  inhibition at 16 µg/mL: > 99%

— ChEMBL document CHEMBL6087429, “Synthesis of drimanyl indole fragments of drimentine alkaloids and their antibacterial activities” (2025)
